Measurements published in patent US4698352A, “4-oxo-1,4-dihydronicotinic acid derivatives, salts thereof, and antibacterial agents containing the same” (Toyama Chemical Co., Ltd., priority 1982, dated 1987).
Converted amounts (≈) assume the structure as drawn. Where two headings read alike, the source gives them in different places.

Key:
Assay in all cases: Antibacterial activity (MIC), agar dilution
Assay type in all cases: cell-based
[1] = test system: Ps. aeruginosa S-68; conditions: Pseudomonas aeruginosa
Source text: (§1) The amount of bacteria inoculated was 10^4 cells per plate (10^6 cells per ml).

[2] = test system: Kl. pneumoniae Y-50; conditions: Klebsiella pneumoniae, Y50, 20 h, 10^6 cells per ml, 37° C., read-out: MIC
Source text: as §1

[3] = test system: St. aureus FDA209P; conditions: Staphylococcus aureus, FDA209P, 20 h
Source text: as §1

[4] = test system: Pro. vulgaris GN3027; conditions: Proteus vulgaris, GN3027, 20 h
Source text: as §1

[5] = test system: Kl. pneumoniae Y-41; conditions: Klebsiella pneumoniae, Y41, 10^6 cells per ml, 37° C., 20 hours, read-out: MIC
Source text: as §1

[6] = test system: Aci. antitratus A-6; conditions: 20 h, Aci. antitratus A-6; 10^6 cells per ml; 37° C., 20 hours; read-out: MIC
Source text: as §1

[7] = test system: E. coli NIHJ JC-2; conditions: Escherichia coli, NIHJJC2, 20 h
Source text: as §1

[8] = test system: Pro. morganii T-216; conditions: Morganella morganii, 37° C.
Source text: as §1

[9] = test system: Ent. cloacae IID977; conditions: Enterobacter cloacae, IID977, 20 h
Source text: as §1

[10] = test system: E. coli TK-111; conditions: Escherichia coli, TK111, 20 h, E. coli TK-111; 10^6 cells per ml; 37° C., 20 hours; read-out: MIC
Source text: as §1

[11] = test system: Ps. aeruginosa IFO3445; conditions: Pseudomonas aeruginosa
Source text: as §1

[12] = test system: Pro. mirabilis T-111; conditions: Proteus mirabilis, 37° C.
Source text: as §1

[13] = test system: St. aureus F-137*; conditions: Staphylococcus aureus, 20 h
Source text: as §1
(§2) * Penicillinase-producing bacteria

[14] = test system: Ps. aeruginosa GN3379*; conditions: Pseudomonas aeruginosa, Ps. aeruginosa GN3379, penicillinase-producing, 10^6 cells per ml
Source text: as §1, §2

[15] = test system: Kl. pneumoniae Y-4*; conditions: Klebsiella pneumoniae, 20 h, Kl. pneumoniae Y-4, penicillinase-producing; 10^6 cells per ml; read-out: MIC
Source text: as §1, §2

[16] = test system: E. coli TK-3*; conditions: Escherichia coli, 20 h, E. coli TK-3, penicillinase-producing; 10^6 cells per ml; read-out: MIC
Source text: as §1, §2

[17] = test system: Ps. aeruginosa GN918**; conditions: Pseudomonas aeruginosa, Ps. aeruginosa GN918, cephalospolinase-producing, 10^6 cells per ml
Source text: as §1
(§3) ** Cephalospolinase-producing bacteria

[18] = test system: Pro. vulgaris GN76**; conditions: Proteus vulgaris, 20 h; Pro. vulgaris GN76, cephalospolinase-producing; 10^6 cells per ml; read-out: MIC
Source text: as §1, §3

[19] = test system: E. coli GN5482**; conditions: Escherichia coli, 20 h; E. coli GN5482, cephalospolinase-producing; 10^6 cells per ml; read-out: MIC
Source text: as §1, §3

[20] = S68, Ps. aeruginosa S-68, 10^6 cells per ml, 37° C., 20 hours, read-out: MIC
[21] = St. aureus FDA209P, 10^6 cells per ml, 37° C., 20 hours, read-out: MIC
[22] = Ent. cloacae IID977, 10^6 cells per ml, 37° C., 20 hours, read-out: MIC
[23] = Ps. aeruginosa IFO3445, 10^6 cells per ml, 37° C., 20 hours, read-out: MIC
[24] = St. aureus F-137, penicillinase-producing, 10^6 cells per ml, read-out: MIC
[25] = Pro. vulgaris GN3027, 10^6 cells per ml, 37° C., 20 hours, read-out: MIC
[26] = E. coli NIHJ JC-2, 10^6 cells per ml, 37° C., 20 hours, read-out: MIC
[27] = T216, 10^6 cells per ml, 20 hours, read-out: MIC
[28] = T111, 10^6 cells per ml, 20 hours, read-out: MIC

| Compound | MIC [1, 20] | MIC [2] | MIC [3, 21] | MIC [5] | MIC [6] | MIC [9, 22] | MIC [10] | MIC [11, 23] | MIC ([12]; T111, 20 h, 10^6 cells per ml) | MIC [13, 24] | MIC ([14]; 20 h, read-out: MIC) | MIC [15] | MIC [16] | MIC [18] | MIC [19] | MIC ([1]; S68, 20 h) | MIC [4, 25] | MIC [7, 26] | MIC [8, 27] | MIC ([17]; 20 h, read-out: MIC) | other results |
| --- | --- | --- | --- | --- | --- | --- | --- | --- | --- | --- | --- | --- | --- | --- | --- | --- | --- | --- | --- | --- | --- |
| O=C(O)c1cn(-c2ccc(O)cc2F)c(-c2ccc(N3CCOCC3)cc2)cc1=O | 25 µg/mL (≈ 60.9 µM) | 1.56 µg/mL (≈ 3.8 µM) | 0.78 µg/mL (≈ 1.9 µM) | 12.5 µg/mL (≈ 30.5 µM) | 6.25 µg/mL (≈ 15.2 µM) | 6.25 µg/mL (≈ 15.2 µM) | 0.39 µg/mL (≈ 0.95 µM) | 100 µg/mL (≈ 244 µM) | 12.5 µg/mL (≈ 30.5 µM) | 0.78 µg/mL (≈ 1.9 µM) | 50 µg/mL (≈ 122 µM) | 25 µg/mL (≈ 60.9 µM) | 3.13 µg/mL (≈ 7.63 µM) | 6.25 µg/mL (≈ 15.2 µM) | 0.39 µg/mL (≈ 0.95 µM) | – | – | – | – | – | MIC [4]: 1.56 µg/mL (≈ 3.8 µM); MIC [7]: 1.56 µg/mL (≈ 3.8 µM); MIC ([8]; T216, 20 h, 10^6 cells per ml): 12.5 µg/mL (≈ 30.5 µM); MIC ([17]; GN918, 20 h): 12.5 µg/mL (≈ 30.5 µM) |
| CC(=O)Oc1ccc(-n2cc(C(=O)O)c(=O)cc2-c2ccc(N(C)C)cc2)cc1 | – | 0.39 µg/mL (≈ 0.994 µM) | 0.1 µg/mL (≈ 0.255 µM) | 1.56 µg/mL (≈ 3.98 µM) | 0.2 µg/mL (≈ 0.51 µM) | – | ≤ 0.05 µg/mL | – | 3.13 µg/mL (≈ 7.98 µM) | 0.1 µg/mL (≈ 0.255 µM) | – | 3.13 µg/mL (≈ 7.98 µM) | 0.39 µg/mL (≈ 0.994 µM) | 0.39 µg/mL (≈ 0.994 µM) | ≤ 0.05 µg/mL | 3.13 µg/mL (≈ 7.98 µM) | 0.1 µg/mL (≈ 0.255 µM) | 0.2 µg/mL (≈ 0.51 µM) | 0.78 µg/mL (≈ 1.99 µM) | 0.78 µg/mL (≈ 1.99 µM) | MIC [9]: 1.56 µg/mL (≈ 3.98 µM); MIC ([11]; IFO3445, 20 h): 3.13 µg/mL (≈ 7.98 µM); MIC ([14]; GN3379, 20 h): 3.13 µg/mL (≈ 7.98 µM) |
| O=C(O)c1cn(-c2ccc(O)cc2)c(-c2ccc(-c3ccccc3)cc2)cc1=O | – | 0.39 µg/mL (≈ 1.02 µM) | ≤ 0.05 µg/mL | 12.5 µg/mL (≈ 32.6 µM) | 0.39 µg/mL (≈ 1.02 µM) | 3.13 µg/mL (≈ 8.16 µM) | 0.1 µg/mL (≈ 0.261 µM) | 25 µg/mL (≈ 65.2 µM) | – | ≤ 0.05 µg/mL | 100 µg/mL (≈ 261 µM) | 12.5 µg/mL (≈ 32.6 µM) | 0.78 µg/mL (≈ 2.03 µM) | 0.78 µg/mL (≈ 2.03 µM) | ≤ 0.05 µg/mL | 12.5 µg/mL (≈ 32.6 µM) | 0.2 µg/mL (≈ 0.522 µM) | 0.39 µg/mL (≈ 1.02 µM) | 1.56 µg/mL (≈ 4.07 µM) | 1.56 µg/mL (≈ 4.07 µM) | MIC [12, 28]: 3.13 µg/mL (≈ 8.16 µM) |
| Cc1ccc(-c2cc(=O)c(C(=O)O)cn2-c2ccc(O)cc2)s1 | 3.13 µg/mL (≈ 9.56 µM) | 0.2 µg/mL (≈ 0.611 µM) | 0.2 µg/mL (≈ 0.611 µM) | 0.78 µg/mL (≈ 2.38 µM) | 0.39 µg/mL (≈ 1.19 µM) | 0.78 µg/mL (≈ 2.38 µM) | ≤ 0.05 µg/mL | 3.13 µg/mL (≈ 9.56 µM) | – | 0.2 µg/mL (≈ 0.611 µM) | 3.13 µg/mL (≈ 9.56 µM) | 1.56 µg/mL (≈ 4.77 µM) | 0.2 µg/mL (≈ 0.611 µM) | 0.2 µg/mL (≈ 0.611 µM) | ≤ 0.05 µg/mL | – | ≤ 0.05 µg/mL | 0.2 µg/mL (≈ 0.611 µM) | 0.39 µg/mL (≈ 1.19 µM) | 0.78 µg/mL (≈ 2.38 µM) | MIC [12, 28]: 3.13 µg/mL (≈ 9.56 µM) |
| O=C(O)c1cn(-c2ccc(O)cc2)c(-c2ccc3cccnc3c2)cc1=O | – | 1.56 µg/mL (≈ 4.35 µM) | – | 6.25 µg/mL (≈ 17.4 µM) | 25 µg/mL (≈ 69.8 µM) | 3.13 µg/mL (≈ 8.73 µM) | 0.39 µg/mL (≈ 1.09 µM) | 25 µg/mL (≈ 69.8 µM) | – | – | – | 12.5 µg/mL (≈ 34.9 µM) | 0.39 µg/mL (≈ 1.09 µM) | 3.13 µg/mL (≈ 8.73 µM) | ≤ 0.05 µg/mL | 12.5 µg/mL (≈ 34.9 µM) | 0.39 µg/mL (≈ 1.09 µM) | 0.78 µg/mL (≈ 2.18 µM) | – | 3.13 µg/mL (≈ 8.73 µM) | MIC [3]: 1.56 µg/mL (≈ 4.35 µM); MIC ([8]; T216, 20 h, 10^6 cells per ml): 6.25 µg/mL (≈ 17.4 µM); MIC [12, 28]: 25 µg/mL (≈ 69.8 µM); MIC [13]: 1.56 µg/mL (≈ 4.35 µM); MIC ([14]; GN3379, 20 h): 12.5 µg/mL (≈ 34.9 µM) |
| CN(C)c1ccc(-c2cc(=O)c(C(=O)O)cn2-c2ccc(O)c(F)c2)cc1 | 1.56 µg/mL (≈ 4.23 µM) | 0.39 µg/mL (≈ 1.06 µM) | 0.39 µg/mL (≈ 1.06 µM) | 3.13 µg/mL (≈ 8.5 µM) | 0.39 µg/mL (≈ 1.06 µM) | 1.56 µg/mL (≈ 4.23 µM) | 0.1 µg/mL (≈ 0.271 µM) | – | 3.13 µg/mL (≈ 8.5 µM) | 0.39 µg/mL (≈ 1.06 µM) | – | 3.13 µg/mL (≈ 8.5 µM) | 0.78 µg/mL (≈ 2.12 µM) | 0.78 µg/mL (≈ 2.12 µM) | ≤ 0.05 µg/mL | – | 0.2 µg/mL (≈ 0.543 µM) | 0.39 µg/mL (≈ 1.06 µM) | 1.56 µg/mL (≈ 4.23 µM) | 12.5 µg/mL (≈ 33.9 µM) | MIC ([11]; IFO3445, 20 h): 3.13 µg/mL (≈ 8.5 µM); MIC ([14]; GN3379, 20 h): 3.13 µg/mL (≈ 8.5 µM) |
